{"source": "patent US6500803B1", "about": "“Factor VIIa inhibitors” (Aventis Pharma Deutschland GmbH, priority 1999, dated 2002)", "data": [{"target": "T1, factor VIIa/tissue factor (Homo sapiens, UniProt P08709)", "T1 construct": "human factor VIIa and TF (5 nM and 10 nM, respective final concentration)", "T1 sequence (P08709 213-466 limits assumed)": "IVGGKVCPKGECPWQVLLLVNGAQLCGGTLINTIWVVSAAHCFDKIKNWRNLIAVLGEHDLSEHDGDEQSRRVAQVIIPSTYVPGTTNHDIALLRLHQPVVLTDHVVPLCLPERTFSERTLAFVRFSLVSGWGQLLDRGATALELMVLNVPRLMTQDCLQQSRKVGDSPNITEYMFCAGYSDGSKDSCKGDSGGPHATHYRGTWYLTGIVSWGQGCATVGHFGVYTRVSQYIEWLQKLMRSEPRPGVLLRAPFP", "T1 sequence (P08709 61-212 limits assumed)": "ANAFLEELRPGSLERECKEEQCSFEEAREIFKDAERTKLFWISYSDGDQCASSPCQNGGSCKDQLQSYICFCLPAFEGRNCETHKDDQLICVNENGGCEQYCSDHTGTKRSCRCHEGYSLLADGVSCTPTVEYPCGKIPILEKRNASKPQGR", "T1 sequence (P13726 33-295 partner)": "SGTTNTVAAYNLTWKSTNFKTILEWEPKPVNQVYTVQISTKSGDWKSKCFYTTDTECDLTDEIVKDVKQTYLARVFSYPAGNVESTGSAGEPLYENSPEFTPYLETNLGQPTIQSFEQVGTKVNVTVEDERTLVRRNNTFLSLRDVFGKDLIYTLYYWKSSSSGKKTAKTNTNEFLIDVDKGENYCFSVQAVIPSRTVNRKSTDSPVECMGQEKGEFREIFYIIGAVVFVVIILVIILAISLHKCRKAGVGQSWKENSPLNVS", "assay": "Factor VIIa (FVIIa) chromogenic assay", "type": "biochemical", "settings": "human factor VIIa 5 nM and TF 10 nM, chromogenic substrate S-2288 500 μM, 15 min preincubation, 25° C., pH 8.15", "experimental": "The ability of compounds of formula I to inhibit factor VIIa or other enzymes like factor Xa, thrombin, plasmin, or trypsin can be assessed by determining the concentration of the compound of formula I that inhibits enzyme activity by 50%, i.e., the IC50 value, which is related to the inhibition constant Ki. Purified enzymes are used in chromogenic assays. The concentration of inhibitor that causes a 50% decrease in the rate of substrate hydrolysis is determined by linear regression after plotting the relative rates of hydrolysis (compared to the uninhibited control) versus the log of the concentration of the compound of formula I. For calculating the inhibition constant Ki, the IC50 value is corrected for competition with substrate using the formula: Ki=IC50/{1+(substrate concentration/Km)} wherein Km is the Michaelis-Menten constant (Chen and Prusoff, Biochem. Pharmacol. 22 (1973), 3099-3108; I. H. Segal, Enzyme Kinetics, John Wiley & Sons, New York (1975) 100-125; which are incorporated herein by reference).\na) Factor VIIa (FVIIa) Assay\nThe inhibitory activity (expressed as inhibition constant Ki (FVIIa)) of compounds of formula I towards factor VIIa/tissue factor activity was determined using a chromogenic assay essentially as described previously (J. A. Ostrem et al., Biochemistry 37 (1998) 1053-1059, which is incorporated herein by reference). Kinetic assays were conducted at 25° C. in half-area microtiter plates (Costar Corp., Cambridge, Mass.) using a kinetic plate reader (Molecular Devices Spectramax 250). A typical assay consisted of 25 μl of human factor VIIa and TF (5 nM and 10 nM, respective final concentration) combined with 40 μl of inhibitor dilutions in 10% DMSOFTBS-PEG buffer (50 mM Tris, 15 mM NaCl, 5 mM CaCl2, 0.05% PEG 8000, pH 8.15). Following a 15 min preincubation period, the assay was initiated by the addition of 35 μl of the chromogenic substrate S-2288 (D-Ile-Pro-Arg-p-nitroanilide, Pharmacia Hepar Inc., 500 μM final concentration).", "units": {"Ki": "nM"}, "values": [{"smiles": "C=CCOC(=O)N[C@@H](Cc1ccc(C(=N)N)cc1)C(=O)N[C@@H](CCC(=O)O)C(=O)NCc1cccc(CNS(=O)(=O)c2ccc(F)cc2)c1", "note": "[Example 25]", "Ki": 1880}, {"smiles": "C=CCOC(=O)N[C@@H](Cc1ccc(C(=N)N)cc1)C(=O)N[C@@H](CCCC(=O)O)C(=O)NCc1cccc(N)c1", "note": "[Example 15, Alloc-pAph-2-Aad-(3-aminobenzyl)amide]", "Ki": 75700}, {"smiles": "C=CCOC(=O)N[C@@H](Cc1ccc(C(=N)N)cc1)C(=O)N[C@@H](CCC(=O)O)C(=O)NCCc1ccc(N)cc1", "note": "[Example 3, Alloc-pAph-Glu-(2-(4-aminophenyl)ethyl)amide]", "Ki": 800}, {"smiles": "C=CCOC(=O)N[C@@H](Cc1ccc(C(=N)N)cc1)C(=O)N[C@@H](CCC(=O)O)C(=O)NCc1cccc(CNS(=O)(=O)C=Cc2ccccc2)c1", "note": "[Example 22]", "Ki": 1460}, {"smiles": "C=CCOC(=O)N[C@@H](Cc1ccc(C(=N)N)cc1)C(=O)N[C@@H](CCC(=O)O)C(=O)NC1CCN(S(=O)(=O)c2cccc(Cl)c2)CC1", "note": "[Example 32]", "Ki": 560}, {"smiles": "C=CCOC(=O)N[C@@H](Cc1ccc(C(=N)N)cc1)C(=O)N[C@@H](CCC(=O)O)C(=O)NCCCNS(=O)(=O)c1ccc(OC)cc1", "note": "[Example 28]", "Ki": 280}, {"smiles": "C=CCOC(=O)NC(Cc1ccc(C(=N)N)cc1)C(=O)NC(CCC(=O)O)C(=O)NCc1ccc(O)cc1O", "note": "(stereo not drawn) [Example 4, Alloc-pAph-Glu-(2,4-dihydroxybenzyl)amide]", "Ki": 700}, {"smiles": "C=CCOC(=O)N[C@@H](Cc1ccc(C(=N)N)cc1)C(=O)N[C@@H](CCC(=O)O)C(=O)NCc1cccc(CNS(=O)(=O)N(C)C)c1", "note": "[Example 21]", "Ki": 620}, {"smiles": "C=CCOC(=O)N[C@@H](Cc1ccc(C(=N)N)cc1)C(=O)N[C@@H](CCC(=O)O)C(=O)Nc1nc(CC(N)=O)cs1", "note": "[Example 12, Alloc-pAph-Glu-(4-carbamoylmethylthiazol-2-yl)amide]", "Ki": 44100}, {"smiles": "C=CCOC(=O)N[C@@H](Cc1ccc(C(=N)N)cc1)C(=O)N[C@@H](CCC(=O)O)C(=O)NCCCNS(=O)(=O)c1cccc(Br)c1", "note": "[Example 26]", "Ki": 300}, {"smiles": "C=CCOC(=O)N[C@@H](Cc1ccc(C(=N)N)cc1)C(=O)N[C@@H](CCC(=O)O)C(=O)NCc1cccc(CNS(=O)(=O)c2cccc3ccccc23)c1", "note": "[Example 18]", "Ki": 1800}, {"smiles": "C=CCOC(=O)N[C@@H](Cc1ccc(C(=N)N)cc1)C(=O)N[C@@H](CCC(=O)O)C(=O)NCc1ccc(N)cc1", "note": "[Example 1, Alloc-pAph-Glu-(4-aminobenzyl)amide]", "Ki": 400}, {"smiles": "C=CCOC(=O)N[C@@H](Cc1ccc(C(=N)N)cc1)C(=O)N[C@@H](CCC(=O)O)C(=O)NCCCN", "note": "[Example 38]", "Ki": 3820}, {"smiles": "C=CCOC(=O)N[C@@H](Cc1ccc(C(=N)N)cc1)C(=O)N[C@@H](CCC(=O)O)C(=O)NCc1cccc(CNS(C)(=O)=O)c1", "note": "[Example 20]", "Ki": 2030}, {"smiles": "C=CCOC(=O)N[C@@H](Cc1ccc(C(=N)N)cc1)C(=O)N[C@@H](CCC(=O)O)C(=O)NCc1cccc(CNS(=O)(=O)c2ccc(Cl)s2)c1", "note": "[Example 24]", "Ki": 890}, {"smiles": "C=CCOC(=O)N[C@@H](Cc1ccc(C(=N)N)cc1)C(=O)N[C@@H](CCC(=O)O)C(=O)NCc1cccc(CN)c1", "note": "[Example 37]", "Ki": 3700}, {"smiles": "C=CCOC(=O)N[C@@H](Cc1ccc(C(=N)N)cc1)C(=O)N[C@@H](CCC(=O)O)C(=O)NCc1cccc(CNS(=O)(=O)c2ccc3ccccc3c2)c1", "note": "[Example 11, Alloc-pAph-Glu-(3-((naphthalene-2-sulfonylamino)methyl)benzyl)amide]", "Ki": 800}, {"smiles": "C=CCOC(=O)N[C@@H](Cc1ccc(C(=N)N)cc1)C(=O)N[C@@H](CCC(=O)O)C(=O)NC1c2ccccc2-c2ccc(N)cc21", "note": "(mixture of isomers) [Example 6, Alloc-pAph-Glu-((RS)-2-amino-9H-fluorene-9-yl)amide]", "Ki": 400}, {"smiles": "C=CCOC(=O)N[C@@H](Cc1ccc(C(=N)N)cc1)C(=O)N[C@@H](CCC(=O)O)C(=O)NCc1cnc(C)nc1N", "note": "[Example 13, Alloc-pAph-Glu-(4-amino-2-methylpyrimidin-5-ylmethyl)amide]", "Ki": 1900}, {"smiles": "C=CCOC(=O)N[C@@H](Cc1ccc(C(=N)N)cc1)C(=O)N[C@@H](CCC(=O)O)C(=O)NCc1cccc(CNS(=O)(=O)c2ccc(OC)cc2)c1", "note": "[Example 19]", "Ki": 680}, {"smiles": "C=CCOC(=O)N[C@@H](Cc1ccc(C(=N)N)cc1)C(=O)N[C@@H](CCC(=O)O)C(=O)NC1CCN(S(=O)(=O)c2cccc(Br)c2)CC1", "note": "[Example 30]", "Ki": 430}, {"smiles": "C=CCOC(=O)N[C@@H](Cc1ccc(C(=N)N)cc1)C(=O)N[C@@H](CCC(=O)O)C(=O)NCc1cccc(N)c1", "note": "[Example 2, Alloc-pAph-Glu-(3-aminobenzyl)amide]", "Ki": 200}, {"smiles": "C=CCOC(=O)N[C@@H](Cc1ccc(C(=N)N)cc1)C(=O)N[C@@H](CC(=O)O)C(=O)NCc1cccc(N)c1", "note": "[Example 14, Alloc-pAph-Asp-(3-aminobenzyl)amide]", "Ki": 3400}, {"smiles": "C=CCOC(=O)N[C@@H](Cc1ccc(C(=N)N)cc1)C(=O)N[C@@H](CCC(=O)O)C(=O)NCCCNS(=O)(=O)c1cc(Cl)cc(Cl)c1", "note": "[Example 10, Alloc-pAph-Glu-(3-(3,5-dichlorobenzenesulfonylamino)propyl)amide]", "Ki": 680}, {"smiles": "C=CCOC(=O)N[C@@H](Cc1ccc(C(=N)N)cc1)C(=O)N[C@@H](CCC(=O)O)C(=O)NCc1ccccc1N", "note": "[Example 5, Alloc-pAph-Glu-(2-aminobenzyl)amide]", "Ki": 600}, {"smiles": "C=CCOC(=O)N[C@@H](Cc1ccc(C(=N)N)cc1)C(=O)N[C@@H](CCC(=O)O)C(=O)NCCCNC(=O)OCC", "note": "[Example 7, Alloc-pAph-Glu-(3-ethoxycarbonylaminopropyl)amide]", "Ki": 800}, {"smiles": "C=CCOC(=O)N[C@@H](Cc1ccc(C(=N)N)cc1)C(=O)N[C@@H](CCC(=O)O)C(=O)NC1CCN(S(=O)(=O)c2cccc(C(F)(F)F)c2)CC1", "note": "[Example 31]", "Ki": 640}]}]}
